Test results reported in patent US8501741B2, “Optically active compound of prulifloxacin for treating infection and preparation method thereof” (priority 2010, dated 2013).

Assays:
[1] = Acute toxicity test in NIH mice, limited dosage by gavage; conditions: both sexes, mouse, in vivo, po, 5000 mg/kg, single gavage, 2 weeks observation, read-out: LD50 of oral administration
Protocol: Acute toxicity test was conducted in NIH mice by administrating limited-dosages of drugs.
Levo-prulifloxacin; control groups: racemic prulifloxacin group and blank control group
20 NIH mice in each group, half male and half female, 18˜22 g in body weight, were fasted overnight. Levo-prulifloxacin and racemic prulifloxacin were prepared to a 250 mg/ml suspension with 0.3% CMC, respectively, and then administered to the mice by gavage at once in the amount of 0.2 mL/10 g. After administration, observation was firstly conducted for 4 hours continuously, and then once a day for 2 weeks continuously. Animals' responses to toxicity, appearing time and recovering time thereof were recorded. On Day 2, 4, 8, 11 and 15, body weight of the animals were measured and amounts of feed intake were determined. Observation indexes included diet, appearance, behavior, secretion, excrement and the like Animals' death was recorded, starting time, severity, duration of toxic symptoms and toxic reactions, whether the symptoms or reactions are reversible and the like were also recorded. Animals dying from poisoning and dying animals were dissected roughly in time while all other animals were dissected roughly after completing observation. […] The obtained data were processed by Bliss method to calculate LD50.

[2] = background statement; cited from earlier work
Pseudomonas aeruginosa = assay: Systemic infection in mouse, P. aeruginosa; assay type: in vivo; conditions: Kunming mice, intraperitoneal infection with minimal lethal dose, drug by gavage 1 hour after infection, 7 days observation, Bliss method; for ED50: Pseudomonas aeruginosa, ip
Excerpt: (§1) 1. Origin of testing samples:
(§2) • Levo-ofloxacin was commercially available.
(§3) Prulifloxacin was self-made product, prepared according to the method disclosed in the publication J. Med. Chem. 1992, 35, 4727-4738.
(§4) Levo-prulifloxacin, dextro-prulifloxacin, levo-prulifloxacin hydrochloride, levo-prulifloxacin mesylate were self-made, prepared according to the method described in examples (see respective ordinal number in parenthesis following name of testing drug in Table 6);
(§5) 2. Experimental strains: Bacteria for infecting animals were pathogenic strains isolated from clinic;
(§6) 3. Preparation of liquid bacteria culture: 2-3 colonies were picked and inoculated into M-H broth, followed by incubation for 18 hours at 37° C. The culture was diluted appropriately with 5% dried yeast liquid for use.
(§7) 4. Experimental animals: Healthy SPF Kunming mice were selected, with 18-22 g in body weight, half male and half female.
(§8) 5. Determination of minimal lethal dose of bacteria: Mice were divided randomly, resulting in 10 mice in each group, half male and half female. The above-mentioned bacterial cultures in different dilutions were injected intraperitoneally into mice, in the amount of 0.5 mL per mouse, followed by continuous observation for 7 days after infection and recording the number of death mice. The minimal amount of bacteria which caused 100% death of mice was deemed as minimal lethal dose of bacteria and thereby was adopted for infection tests in vivo. 6. Preparation of testing drugs: The testing drugs were prepared with 1% CMC, respectively. 7. Method for infection and treatment: Experimental animals were divided randomly but evenly based on gender and body weight, resulting in 10 mice in each group, half male and half female. Minimal lethal dose of bacteria were injected intraperitoneally into mice in amount of 0.5 mL/mice, respectively. After infected for 1 hour, the testing drugs in different doses were administered to mice by gavage in the amount of 0.2 ml/10 g, respectively. Seven dose groups of 0.05, 0.10, 0.20, 0.40, 0.80, 1.60, 3.20 mg/kg were set up for Escherichia coli while seven dose groups of 0.50, 1.0, 2.0, 4.0, 8.0, 16.0, 32.0 mg/kg were set up for Pseudomonas aeruginosa. Observation was conducted after administration and death statuses of the mice were recorded. A control group was set up and the number of mice which died within 7 days after infection was recorded at the same time. The obtained data were processed by Bliss method to calculate ED50. 8.

Escherichia coli = assay: Systemic infection in mouse, E. coli; assay type: in vivo; conditions: Kunming mice, intraperitoneal infection with minimal lethal dose, drug by gavage 1 hour after infection, 7 days observation, Bliss method; for ED50: Escherichia coli, ip
Excerpt: as §1, §2, §3, §4, §5, §6, §7, §8

bacteria = conditions: ulifloxacin enantiomers, small samples from chiral preparation chromatographic column; cited from earlier work

| Structure (SMILES) | ED50 (Pseudomonas aeruginosa) [mg/kg] | ED50 (Escherichia coli) [mg/kg] | ED50 P. aeruginosa (Pseudomonas aeruginosa) [mg/kg] | ED50 E. coli (Escherichia coli) [mg/kg] | also measured |
| --- | --- | --- | --- | --- | --- |
| Cc1oc(=O)oc1CN1CCN(c2cc3c(cc2F)c(=O)c(C(=O)O)c2n3C(C)S2)CC1 (racemic) [(+/−) Prulifloxacin, (±)6-fluoro-1-methyl-7-[4-(5-methyl-2-oxo-1,3-dioxolen-4-yl)methyl-1-piperazinyl]-4-oxo-4H-[1,3]thiazeto[3,2-α]quinoline-3-carboxylic acid, reference compound] | 4.04 | 0.53 | – | – | LD50 at 2 weeks [1]: > 5000 mg/kg; half-life [2]: 8 to 9 h; time at which peak blood concentration is attained [2]: 0.5 to 1 h |
| Cc1oc(=O)oc1CN1CCN(c2cc3c(cc2F)c(=O)c(C(=O)O)c2n3C(C)S2)CC1 (single isomer, unassigned; (+)) [(+) Prulifloxacin] | – | – | 8.20 | 1.58 | – |
| C[C@@H]1Sc2c(C(=O)O)c(=O)c3cc(F)c(N4CCNCC4)cc3n21 (single isomer, unassigned) [levo-enantiomer] | – | – | – | – | antibacterial activity of levo-enantiomer relative to dextro-enantiomer (bacteria): 2 to 8 times |
| CS(=O)(=O)O.Cc1oc(=O)oc1CN1CCN(c2cc3c(cc2F)c(=O)c(C(=O)O)c2n3[C@H](C)S2)CC1 [(−) Prulifloxacin mesylate, S-(−)-6-fluoro-1-methyl-7-[4-(5-methyl-2-oxo-1,3-dioxolen-4-yl)methyl-1-piperazinyl]-4-oxo-4H-[1,3]thiazeto[3,2-α]quinoline-3-carboxylic acid mesylate] | – | – | 1.22 | 0.11 | – |
| Cc1oc(=O)oc1CN1CCN(c2cc3c(cc2F)c(=O)c(C(=O)O)c2n3[C@H](C)S2)CC1 [(−) Prulifloxacin, S-(−)-6-fluoro-1-methyl-7-[4-(5-methyl-2-oxo-1,3-dioxolen-4-yl)methyl-1-piperazinyl]-4-oxo-4H-[1,3]thiazeto[3,2-α]quinoline-3-carboxylic acid] | 1.02 | 0.11 | – | – | LD50 at 2 weeks [1]: > 5000 mg/kg |
| Cc1oc(=O)oc1CN1CCN(c2cc3c(cc2F)c(=O)c(C(=O)O)c2n3[C@H](C)S2)CC1.Cl [(−) Prulifloxacin hydrochloride, S-(−)-6-fluoro-1-methyl-7-[4-(5-methyl-2-oxo-1,3-dioxolen-4-yl)methyl-1-piperazinyl]-4-oxo-4H-[1,3]thiazeto[3,2-α]quinoline-3-carboxylic acid hydrochloride] | – | – | 1.25 | 0.12 | – |
| CC1COc2c(N3CCN(C)CC3)c(F)cc3c(=O)c(C(=O)O)cn1c23 (centres unmarked) [Ofloxacin, reference compound] | 16.1 | 0.82 | – | – | – |
